Consider 62 compounds from ChEMBL document CHEMBL1143532 (Bioorg Med Chem Lett, 2005).

In test [1] the target is Neuronal acetylcholine receptor; alpha4/beta2 (Homo sapiens, UniProt P17787+P43681). Nature of the test: Binding affinity towards Nicotinic acetylcholine receptor alpha4-beta2; Not significant. It is filed as protein complex.
Test [2] has as its target T1, Neuronal acetylcholine receptor subunit alpha-7 (Rattus norvegicus, UniProt Q05941). Kind of test: Inhibitory constant against [3H]methyllycaconitine binding towards Nicotinic acetylcholine receptor alpha-7 of rat brain hippocampus. In kind it is tissue-based.
Test [3] has as its target Neuronal acetylcholine receptor subunit alpha-7 (Rattus norvegicus) (UniProt Q05941). Kind of test: Intrinsic activity against rat nicotinic acetylcholine alpha-7 subunit expressed in Xenopus oocytes as current activation. The note with it: Oocyte. In kind it is functional, cell-based.
The target of test [4] is T1, Neuronal acetylcholine receptor subunit alpha-7. Kind of test: Potency against rat nicotinic acetylcholine alpha-7 subunit expressed in Xenopus oocytes as current activation. It is filed as functional, cell-based, Oocyte.

Sequence of Neuronal acetylcholine receptor; alpha4/beta2 (P17787 whole entry): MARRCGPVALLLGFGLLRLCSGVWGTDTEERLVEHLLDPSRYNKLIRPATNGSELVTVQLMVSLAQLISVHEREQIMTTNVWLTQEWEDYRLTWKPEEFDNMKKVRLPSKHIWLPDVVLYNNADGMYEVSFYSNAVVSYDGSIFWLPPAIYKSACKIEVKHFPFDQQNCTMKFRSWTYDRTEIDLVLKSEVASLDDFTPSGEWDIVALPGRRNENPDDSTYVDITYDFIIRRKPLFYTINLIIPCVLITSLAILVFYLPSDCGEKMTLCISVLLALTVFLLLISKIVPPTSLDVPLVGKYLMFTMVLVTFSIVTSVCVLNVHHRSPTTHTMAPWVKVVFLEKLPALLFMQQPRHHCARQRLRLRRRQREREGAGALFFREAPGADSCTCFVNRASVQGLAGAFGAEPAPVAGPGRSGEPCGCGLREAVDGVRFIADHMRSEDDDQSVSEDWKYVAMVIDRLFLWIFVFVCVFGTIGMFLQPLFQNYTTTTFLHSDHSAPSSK
Sequence of Neuronal acetylcholine receptor; alpha4/beta2 (P43681 whole entry): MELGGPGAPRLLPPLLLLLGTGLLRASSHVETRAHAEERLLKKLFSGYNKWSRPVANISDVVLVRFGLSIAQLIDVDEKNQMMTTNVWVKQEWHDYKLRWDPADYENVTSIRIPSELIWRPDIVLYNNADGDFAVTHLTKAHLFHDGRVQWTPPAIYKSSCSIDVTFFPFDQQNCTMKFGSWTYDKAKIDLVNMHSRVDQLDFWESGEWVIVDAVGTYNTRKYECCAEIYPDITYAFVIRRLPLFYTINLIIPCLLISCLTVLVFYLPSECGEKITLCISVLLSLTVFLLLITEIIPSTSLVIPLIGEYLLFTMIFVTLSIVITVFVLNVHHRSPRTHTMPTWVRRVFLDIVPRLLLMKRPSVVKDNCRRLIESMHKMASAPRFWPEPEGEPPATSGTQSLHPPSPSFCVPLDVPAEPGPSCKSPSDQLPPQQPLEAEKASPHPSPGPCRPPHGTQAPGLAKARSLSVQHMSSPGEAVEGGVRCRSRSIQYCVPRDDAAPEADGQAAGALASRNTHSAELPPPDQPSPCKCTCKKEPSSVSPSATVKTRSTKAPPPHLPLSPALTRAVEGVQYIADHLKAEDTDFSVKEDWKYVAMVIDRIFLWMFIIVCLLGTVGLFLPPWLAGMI
T1 sequence (Q05941 whole entry): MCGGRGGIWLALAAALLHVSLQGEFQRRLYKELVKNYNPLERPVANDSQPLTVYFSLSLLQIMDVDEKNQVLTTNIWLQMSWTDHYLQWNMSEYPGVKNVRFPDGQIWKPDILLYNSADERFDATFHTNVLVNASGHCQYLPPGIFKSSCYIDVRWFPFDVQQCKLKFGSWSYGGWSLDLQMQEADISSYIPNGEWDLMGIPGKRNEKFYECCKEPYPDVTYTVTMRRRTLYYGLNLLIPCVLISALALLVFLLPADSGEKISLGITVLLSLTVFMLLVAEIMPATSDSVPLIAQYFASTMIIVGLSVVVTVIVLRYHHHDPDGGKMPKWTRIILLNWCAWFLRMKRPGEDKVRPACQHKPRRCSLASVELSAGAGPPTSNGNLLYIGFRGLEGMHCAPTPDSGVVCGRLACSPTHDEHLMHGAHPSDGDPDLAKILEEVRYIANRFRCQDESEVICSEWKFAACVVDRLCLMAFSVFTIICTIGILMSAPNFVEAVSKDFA
Sequence of Neuronal acetylcholine receptor subunit alpha-7 (Rattus norvegicus) (Q05941 whole entry): as above

As a reminder, the Ki is a measure of affinity in units of concentration, obtained from inhibition or displacement. Low readings indicate a stronger hold on the target, high ones a looser hold on the target. For `Cn1cccc1C(=O)N[C@@H]1C2CCN(CC2)[C@@H]1Cc1cccnc1`, the Ki in test [1] is more than 10000 nM; in test [2], 155 nM.
For `O=C(N[C@@H]1C2CCN(CC2)[C@@H]1Cc1cccnc1)c1csc(Br)c1` the same measures were more than 10000 nM and 0.4 nM.
As for `O=C(Nc1ccc(Br)cc1)O[C@@H]1C2CCN(CC2)[C@@H]1Cc1ccsc1`, the results for the Ki in test [1] and in test [2] were more than 10000 nM and 534 nM, respectively.
For the compound `O=C(Nc1ccc(-c2ccccc2)cc1)N[C@@H]1C2CCN(CC2)[C@@H]1Cc1cccnc1`, the values for the Ki in test [1] and in test [2] were more than 10000 nM and 424 nM, respectively.
For `C/C(=C\c1ccccc1)C(=O)N[C@@H]1C2CCN(CC2)[C@@H]1Cc1cccnc1` the same measures were more than 10000 nM and 5 nM.
For `O=C(NC1CC1c1ccccc1)O[C@@H]1C2CCN(CC2)[C@@H]1Cc1cccnc1` (some centres not stated), the Ki in test [1] is more than 10000 nM; in test [2], 103 nM.
For `O=C(Nc1ccc(-c2ccccc2)cc1)O[C@@H]1C2CCN(CC2)[C@@H]1Cc1cccnc1`, the Ki in test [1] was more than 10000 nM; in test [2], 500 nM.
As to `COc1ccccc1NC(=O)N[C@@H]1C2CCN(CC2)[C@@H]1Cc1cccnc1`, the Ki in test [1] was more than 10000 nM; in test [2] it was 30 nM.
In test [1], `O=C(N[C@@H]1C2CCN(CC2)[C@@H]1Cc1cccnc1)c1ccc(Sc2ccccc2)cc1` yielded an inhibition constant (Ki) of more than 10000 nM.
On to `O=C(Nc1ccc(Br)cc1)O[C@@H]1C2CCN(CC2)[C@@H]1Cc1ccccc1`, for which the results for the Ki in test [1] and in test [2] were more than 10000 nM and 838 nM, respectively.
Taken in the same sequence, the figures for `O=C(N[C@@H]1C2CCN(CC2)[C@@H]1Cc1cccnc1)c1cccc(Br)c1` were more than 10000 nM and 64 nM.
Taken in the same sequence, the figures for `COc1cncc(C[C@@H]2[C@H](OC(=O)Nc3ccc(Br)cc3)C3CCN2CC3)c1` were more than 10000 nM and 144 nM.
For `O=C(Nc1ccc(Br)cc1)O[C@@H]1C2CCN(CC2)[C@@H]1Cc1cc2ccccc2o1` the same measures were more than 10000 nM and 8390 nM.
Take `O=C(Nc1ccc(Br)cc1)O[C@@H]1C2CCN(CC2)[C@@H]1Cc1ccco1`: the Ki in test [1] is more than 10000 nM; in test [2] it was 234 nM.
For `N#Cc1cccc(NC(=O)N[C@@H]2C3CCN(CC3)[C@@H]2Cc2cccnc2)c1` the same measures were more than 10000 nM and 170 nM.
Taken in the same sequence, the figures for `C/C(=C\C(=O)N[C@@H]1C2CCN(CC2)[C@@H]1Cc1cccnc1)c1ccccc1` were more than 10000 nM and 87 nM.
Compound `O=C(N[C@@H]1C2CCN(CC2)[C@@H]1Cc1cccnc1)c1cc2ccccc2o1` displayed an Imax in test [3] of 1.
Regarding `COc1ccncc1C[C@@H]1[C@H](OC(=O)Nc2ccc(Br)cc2)C2CCN1CC2`, the figures for the Ki in test [1] and in test [2] were more than 10000 nM and 29 nM, respectively.
For `O=C(Nc1ccc(Cl)c(Cl)c1)N[C@@H]1C2CCN(CC2)[C@@H]1Cc1cccnc1` the same measures were more than 10000 nM and 34 nM.
Taken in the same sequence, the figures for `O=C(N[C@@H]1C2CCN(CC2)[C@@H]1Cc1cccnc1)c1c[nH]c2ccccc12` were more than 10000 nM and 8 nM.
With `O=C(NC1CC1c1ccccc1)N[C@@H]1C2CCN(CC2)[C@@H]1Cc1cccnc1` (some centres not stated), the Ki in test [1] was more than 10000 nM.
Consider `O=C(N[C@@H]1C2CCN(CC2)[C@@H]1Cc1cccnc1)c1ccc2ccccc2c1O`, for which the Ki in test [1] was more than 10000 nM; in test [2], 1 nM.
Taken in the same sequence, the figures for `COc1ccc(S(=O)(=O)N[C@@H]2C3CCN(CC3)[C@@H]2Cc2cccnc2)cc1` were more than 10000 nM and 8920 nM.
Taken in the same sequence, the figures for `O=C(N[C@@H]1C2CCN(CC2)[C@@H]1Cc1cccnc1)c1ccsc1` were more than 10000 nM and 790 nM.
For `COc1cccc(NC(=O)N[C@@H]2C3CCN(CC3)[C@@H]2Cc2cccnc2)c1` the same measures were more than 10000 nM and 43 nM.
Regarding `CN(C)c1ccc(NC(=O)N[C@@H]2C3CCN(CC3)[C@@H]2Cc2cccnc2)cc1`, the Ki in test [1] is more than 10000 nM; in test [2], 38 nM.
Taken in the same sequence, the figures for `O=C(Nc1ccc(Br)cc1)O[C@@H]1C2CCN(CC2)[C@@H]1Cc1cncnc1` were more than 10000 nM and 40 nM.
With `COc1ccc(C[C@@H]2[C@H](OC(=O)Nc3ccc(Br)cc3)C3CCN2CC3)cc1`, the Ki in test [1] and in test [2] was more than 10000 nM throughout.
For the compound `O=C(Nc1ccc(Sc2ccccc2)cc1)OC1CN2CCC1CC2` (configuration not stated), the Ki was more than 10000 nM in test [1] and 53 nM in test [2].
For `COc1ccc(NC(=O)N[C@@H]2C3CCN(CC3)[C@@H]2Cc2cccnc2)cc1`, the Ki was more than 10000 nM in test [1] and 37 nM in test [2].
`O=C(Nc1ccccc1)OC1CN2CCC1CC2` (configuration not stated) returned a Ki in test [1] of more than 10000 nM.
In test [1], `CN(C)c1ccc(C[C@@H]2[C@H](OC(=O)Nc3ccc(Br)cc3)C3CCN2CC3)cc1` showed a Ki of more than 10000 nM.
As for `O=C(Nc1cccc(C(F)(F)F)c1)N[C@@H]1C2CCN(CC2)[C@@H]1Cc1cccnc1`, the Ki in test [1] was more than 10000 nM; in test [2], 91 nM.
For `O=C(Nc1ccc(Oc2ccccc2)cc1)N[C@@H]1C2CCN(CC2)[C@@H]1Cc1cccnc1` the same measures were more than 10000 nM and 16 nM.
For `O=C(Nc1ccc(Br)cc1)N[C@@H]1C2CCN(CC2)[C@@H]1Cc1cccnc1` the same measures were more than 10000 nM and 9 nM.
For `O=C(Nc1ccc(Br)cc1)O[C@@H]1C2CCN(CC2)[C@@H]1Cc1ccc(F)cc1` the same measures were more than 10000 nM and 263 nM.
In the case of `O=C(Nc1ccccc1)N[C@@H]1C2CCN(CC2)[C@@H]1Cc1cccnc1`, the results for the Ki in test [1] and in test [2] were more than 10000 nM and 16 nM, respectively.
For `O=C(Nc1ccc(F)cc1)N[C@@H]1C2CCN(CC2)[C@@H]1Cc1cccnc1` the same measures were more than 10000 nM and 74 nM.
For the compound `NC(=O)Cc1ccc(S(=O)(=O)N[C@@H]2C3CCN(CC3)[C@@H]2Cc2cccnc2)cc1`, the Ki is more than 10000 nM in test [1] and 146 nM in test [2].
`O=C(Nc1ccccc1)O[C@@H]1C2CCN(CC2)[C@@H]1Cc1cccnc1` had a Ki in test [1] of more than 10000 nM.
Regarding `O=C(Nc1ccc(Br)cc1)O[C@@H]1C2CCN(CC2)[C@@H]1Cc1cnc2ccccc2c1`, the Ki is more than 10000 nM in test [1] and 10000 nM in test [2].
Taken in the same sequence, the figures for `O=C(NCc1ccc(Br)cc1)N[C@@H]1C2CCN(CC2)[C@@H]1Cc1cccnc1` were more than 10000 nM and 274 nM.
`O=C(Nc1ccc(Br)cc1)OC1CN2CCC1CC2` (configuration not stated): in test [1], the Ki is more than 10000 nM.
In the case of `O=C(Nc1cccc(F)c1)N[C@@H]1C2CCN(CC2)[C@@H]1Cc1cccnc1`, the Ki in test [1] was more than 10000 nM; in test [2] it was 6 nM.
For `O=C(Nc1ccc(Br)cc1)O[C@@H]1C2CCN(CC2)[C@@H]1Cc1cccnc1`, the Ki in test [1] is more than 10000 nM.
A word on the EC50: it is the midpoint of the concentration-response curve. Read a high EC50 as a need for much substance. Take `COc1ccc(NC(=O)O[C@@H]2C3CCN(CC3)[C@@H]2Cc2cccnc2)cc1`: the Ki was more than 10000 nM in test [1] and 5 nM in test [2]. This compound came in with an EC50 in test [4] of 300 nM. Besides, in test [3], the Imax is 0.19.
On to `O=C(Nc1ccc(Br)cc1)O[C@@H]1C2CCN(CC2)[C@@H]1Cc1ccccn1`, for which the Ki in test [1] and in test [2] was more than 10000 nM throughout.
On to `CS(=O)(=O)c1ccc(C[C@@H]2[C@H](OC(=O)Nc3ccc(Br)cc3)C3CCN2CC3)cc1`, for which the Ki in test [1] is more than 10000 nM; in test [2], 6780 nM.
With `O=C(Nc1cccc(Br)c1)N[C@@H]1C2CCN(CC2)[C@@H]1Cc1cccnc1`, the figures for the Ki in test [1] and in test [2] were more than 10000 nM and 52 nM, respectively.
Consider `O=C(Nc1ccc(Br)cc1)O[C@@H]1C2CCN(CC2)[C@@H]1Cn1ccnc1`, for which the Ki in test [1] is more than 10000 nM; in test [2] it was 10 nM.
For `O=C(Nc1ccc(Oc2ccccc2)cc1)O[C@@H]1C2CCN(CC2)[C@@H]1Cc1cccnc1` the same measures were more than 10000 nM and 50 nM.
Take `O=C(Nc1ccc(Sc2ccccc2)cc1)O[C@@H]1C2CCN(CC2)[C@@H]1Cc1cccnc1`: the Ki in test [1] is more than 10000 nM; in test [2] it was 9 nM.
For `O=S(=O)(Cc1ccccc1)N[C@@H]1C2CCN(CC2)[C@@H]1Cc1cccnc1` the same measures were more than 10000 nM and 8840 nM.
Taken in the same sequence, the figures for `O=C(NCc1ccccc1)O[C@@H]1C2CCN(CC2)[C@@H]1Cc1cccnc1` were more than 10000 nM and 670 nM.
In turn, `O=S(=O)(N[C@@H]1C2CCN(CC2)[C@@H]1Cc1cccnc1)c1ccc(Br)cc1` gave a Ki in test [1] of more than 10000 nM.
As to `O=S(=O)(N[C@@H]1C2CCN(CC2)[C@@H]1Cc1cccnc1)c1ccccc1`, the Ki was more than 10000 nM in test [1] and 418 nM in test [2].
For `COc1ccc(NC(=O)N[C@@H]2C3CCN(CC3)[C@@H]2Cc2cccnc2)c(OC)c1` the same measures were more than 10000 nM and 31 nM.
For `Cn1cc(C(=O)N[C@@H]2C3CCN(CC3)[C@@H]2Cc2cccnc2)c2ccccc21` the same measures were more than 10000 nM and 521 nM.
In the case of `O=C(Nc1ccc(Br)cc1)O[C@@H]1C2CCN(CC2)[C@@H]1Cc1cnccc1Oc1ccccc1`, the Ki in test [1] and in test [2] was more than 10000 nM throughout.
In the case of `CC(C)Oc1cncc(C[C@@H]2[C@H](OC(=O)Nc3ccc(Br)cc3)C3CCN2CC3)c1`, the Ki was more than 10000 nM in test [1] and 7020 nM in test [2].
`CSc1ccc(NC(=O)N[C@@H]2C3CCN(CC3)[C@@H]2Cc2cccnc2)cc1`: the figures for the Ki in test [1] and in test [2] were more than 10000 nM and 6 nM, respectively.
For `O=C(Nc1ccc(F)cc1)O[C@@H]1C2CCN(CC2)[C@@H]1Cc1cccnc1` the same measures were more than 10000 nM and 6 nM.
